The text below walks through data of patent publication EP0254593B1, “Preparation and uses of interferon-gamma” (KABUSHIKI KAISHA HAYASHIBARA SEIBUTSU KAGAKU KENKYUJO, priority 1986, dated 1988).

In one assay the test system is HEp-2 cell. In words: Potentialization of cytostatic activity of chemotherapeutics by HuIFN-gamma in vitro. The class given is cell-based, human. Conditions: 2880 min. The procedure: (§1) An aliquot of RPMI 1640 medium supplemented with 15 v/v % fetal calf serum was added with an HuIFN-gamma prepared by the method in Example B-1(3) to a final concentration of 5, 50 or 500 units/ml, and the mixture was inoculated with a malignant human tumor cell to 5×10^5 cell/ml. The resultant was incubated in 5% CO2 incubator at 37°C for three days. As control, the same amount of an HuIFN-gamma preinactivated by 30-minute incubation at 100°C was added to a fresh preparation of the same culture medium, and the mixture was treated similarly as above. After culture, the viable cell was stained with neutral red in accordance with the method as described in Applied Microbiology, Vol.22, No.4, pp.671-677 (1971). Thereafter, the neutral red was eluted with acidified ethanol, and the number of viable cell was determined with the absorbance of the eluate at 540 nm.
(§2) Cytostatic rate (%) was determined with the following equation: Cytostatic rate (%) = ( 1 -(A)/(B)) × 100 [formula] wherein A designates the number of viable cell in the test system, and B, that in the control.
(§3) One ml aliquots of a nutrient culture medium prepared in accordance with the method in Experiment 2-2(1) was inoculated with 10^6 cells of a human malignant tumor cell, and the mixture was cultured for one day. The resultant culture was added with 50 units of an HuIFN-gamma prepared by the method in Example B-1(3) and/or 0.1 ml of saline containing a chemotherapeutic, and cultured at 37°C for two days. As control, a saline free of HuIFN-gamma and chemotherapeutic was used. After the culture, the cytostatic rate (%) was determined in accordance with the method in Experiment 2-2(1). The concentration of the chemotherapeutics were as follows: nimustine hydrochloride (ACNU), 1.0×10^-6 g/ml; fluorouracil (5-FU), 1.5×10^-8 g/ml; doxorubicin (ADM), 1.0×10^-10 g/ml; mitomycin C (MMC), 2.5×10^-9 g/ml; and vincristine sulfate (VCR), 1.5×10^-10 g/ml.

For the next assay, the system named is HeLa. The description is as above. Format: cell-based, human. Conditions: 2880 min. The procedure:
as §1, §2, §3

The test system of another assay is PC-9. The description is as above. Particulars: 2880 min. Format: cell-based, human. The procedure: as §1, §2, §3
Another assay has as its system HLE. The description is as above. The class given is cell-based, human. Conditions: 2880 min. The procedure: as §1, §2, §3
Assay [1] concerns human breast cancer tissue. In words: Cytostatic activity on malignant tumors in vivo (tumor weight). The arrangement: species or system BALB/c nude mice. Particulars: injected once every day for 20 days; dose/kg/day: HuIFN-gamma 50 units, HuIFN-alpha 500 units, TNF 100 units, MMC 1 mg; control 10.8 g. As for the experimental part: BALB/c nude mice were implanted at their dorsal area with a segment of human breast cancer tissue. From the time when the tumors grew to about 200 mm^3, the nude mice were injected once every day with one or more HuIFN-gamma prepared by the method in Example B-1(3), a lymphokine derived from human lymphoblastoid cell, and/or a chemotherapeutic in saline solution over a period of 20 days.
Thereafter, the nude mice were sacrificed, and the tumors were weighed.
As control, saline was injected similarly as above.

Where [2] appears, read: chemotherapeutic with addition (+) of 50 units HuIFN-gamma, two days, same chemotherapeutic concentrations.
Setting [3] is: single agent, two days: HuIFN-gamma 50 units, ACNU 1.0×10^-6, 5-FU 1.5×10^-8, ADM 1.0×10^-10, MMC 2.5×10^-9, VCR 1.5×10^-10 g/ml.

Structures are written as SMILES. Where a name gives a salt, the structure may show the parent alone.

As to `O=c1[nH]cc(F)c(=O)[nH]1` [Example 5-FU, fluorouracil], the “Cytostatic rate (%)” value is 67% in the assay on HEp-2 cell (setting [2]); 8% in the assay with HEp-2 cell (setting [3]); 70% in the assay with HeLa (setting [2]); 12% with HeLa (setting [3]); 68% in the assay with PC-9 (setting [2]); 10% with PC-9 (setting [3]). Further, the “Cytostatic rate (%)” value turned out to be 71% in the assay with HLE (setting [2]) and 8% in the assay with HLE (setting [3]).
`Cc1ncc(CNC(=O)N(CCCl)N=O)c(N)n1` [ACNU, nimustine hydrochloride]: the “Cytostatic rate (%)” value with HEp-2 cell (setting [2]) is reported as 54%; in the assay on HEp-2 cell (setting [3]), 4%; in the assay with HeLa (setting [2]), 72%; in the assay with HeLa (setting [3]) it was 5%; in the assay on PC-9 (setting [2]), 65%; in the assay with PC-9 (setting [3]), 2%. Besides, the entries for the “Cytostatic rate (%)” value in the assay on HLE (setting [2]) and in the assay with HLE (setting [3]) were 63% and 5%, respectively.
Take `CC[C@]1(O)C[C@H]2CN(CCc3c([nH]c4ccccc34)[C@@](C(=O)OC)(c3cc4c(cc3OC)N(C=O)[C@H]3[C@@](O)(C(=O)OC)[C@H](OC(C)=O)[C@]5(CC)C=CCN6CC[C@]43[C@@H]65)C2)C1` [VCR, vincristine sulfate]: the “Cytostatic rate (%)” value in the assay with HEp-2 cell (setting [2]) amounted to 58%; in the assay on HEp-2 cell (setting [3]), 5%; in the assay with HeLa (setting [2]) it was 65%; with HeLa (setting [3]), 10%; in the assay with PC-9 (setting [2]), 66%; with PC-9 (setting [3]), 8%. The “Cytostatic rate (%)” value worked out at 58% with HLE (setting [2]) and 10% in the assay with HLE (setting [3]).
With `CO[C@@]12[C@H](COC(N)=O)C3=C(C(=O)C(C)=C(N)C3=O)N1C[C@@H]1N[C@@H]12` [MMC, mitomycin C], the “Cytostatic rate (%)” value with HEp-2 cell (setting [2]) is 61%; in the assay on HEp-2 cell (setting [3]), 10%; with HeLa (setting [2]), 62%; in the assay with HeLa (setting [3]), 7%; with PC-9 (setting [2]) it was 64%; in the assay on PC-9 (setting [3]), 5%. Also, the “Cytostatic rate (%)” value in the assay on HLE (setting [2]) is 65%; with HLE (setting [3]), 12%. For the same compound, the “Tumor” value in assay [1] came out at 5.1 ± 0.4 g.
On to `COc1cccc2c1C(=O)c1c(O)c3c(c(O)c1C2=O)C[C@@](O)(C(=O)CO)C[C@@H]3O[C@H]1C[C@H](N)[C@H](O)[C@H](C)O1` [ADM, doxorubicin], for which the “Cytostatic rate (%)” value with HEp-2 cell (setting [2]) is on record as 59%; in the assay on HEp-2 cell (setting [3]) it was 13%; with HeLa (setting [2]), 64%; with HeLa (setting [3]), 17%; in the assay on PC-9 (setting [2]), 72%; in the assay on PC-9 (setting [3]), 6%. The “Cytostatic rate (%)” value in the assay on HLE (setting [2]) turned out to be 62%; with HLE (setting [3]), 7%.
